PMC7504092, “Synthesis and Antiplasmodial Evaluation of 4-Carboxamido- and 4-Alkoxy-2-Trichloromethyl Quinazolines” (Molecules, 2020)
Where two headings read alike, the source gives them in different places.

Experiments:
K1 P. falciparum strain = test: In vitro antiplasmodial evaluation (SYBR Green I fluorescence-based method); assay type: cell-based; conditions: for IC50: K1, Figures 2 and 3, read-out: IC50 P. falci. K1; for SI (selectivity index = CC50/EC50): CC50 HepG2 / EC50 PfK1; for activity against P. falciparum (in words): K1 strain; for EC50: read-out: PfK1 EC50
Method: It was maintained in continuous culture as described previously by Trager and Jensen. […] Parasitemia was maintained daily at between 1 and 3%. The P. falciparum drug susceptibility test was carried out by comparing quantities of DNA in treated and control cultures of parasite in human erythrocytes according to an SYBR Green I fluorescence-based method using a 96-well fluorescence plate reader. […] Duplicate assays were performed for each sample. After incubation, plates were frozen at -20 °C for 24 h. […] Fifteen μL of each sample were transferred to 96-well flat bottom non-sterile black plates (Greiner Bio-one) already containing 15 μL of the SYBR Green I lysis buffer (2X SYBR Green I, 20 mM Tris base pH 7.5, 20 mM EDTA, 0.008% w/v saponin, 0.08% w/v Triton X-100).

[1] = In vitro cytotoxicity evaluation (MTT); assay type: cell-based; conditions: human
Method: Triplicate assays were performed for each sample. Each plate-well was then microscope-examined for possible precipitate formation before the medium was aspirated from the wells. 100 μL of MTT (3-(4,5-dimethyl-2-thiazolyl)-2,5-diphenyl-2H-tetrazolium bromide) solution (0.5 mg/mL in medium without FBS) were then added to each well. […] After this time, the MTT solution was removed and DMSO (100 μL) was added to dissolve the resulting blue formazan crystals. Plates were shaken vigorously (700 rpm) for 10 min. The absorbance was measured at 570 nm with 630 nm as reference wavelength using a BIO-TEK ELx808 Absorbance Microplate Reader (LabX, Midland, ON, Canada). DMSO was used as blank and doxorubicin (purchased from Sigma Aldrich) as positive control. Cell viability was calculated as percentage of control (cells incubated without compound). […] CC50 values represent the mean value calculated from three independent experiments.

[2] = Plasmodium falciparum, K1, 72 h, multi-resistant K1 P. falciparum strain, 72 h incubation
[3] = multi-resistant K1 P. falciparum strain, 72 h incubation

Structure (SMILES)	IC50 (K1 P. falciparum strain; Plasmodium falciparum)	CC50 at 72 h [1]	SI (selectivity index = CC50/EC50) (K1 P. falciparum strain)	activity against P. falciparum (in words) (K1 P. falciparum strain)	EC50 (K1 P. falciparum strain; [2])	melting point	EC50 (K1 P. falciparum strain; Plasmodium falciparum, K1, 72 h)	EC50 (K1 P. falciparum strain; [3])
COc1ccc(C(=O)Nc2nc(C(Cl)(Cl)Cl)nc3ccccc23)cc1 [Molecule 16, 4-Methoxy-N-(2-Trichloromethylquinazolin-4-yl)benzamide]	0.94 µM	27.7 µM						
CC(C)Oc1nc(C(Cl)(Cl)Cl)nc2ccccc12 [Molecule 30, 4-Isopropoxy-2-Trichloromethylquinazoline]		102 µM	<10	inactive	> 10 µM	210 °C		
COc1ccc(C(=O)Nc2nc(C(F)(F)F)nc3ccccc23)cc1 [Molecule 46, 4-methoxy-N-(2-Trifluoromethylquinazolin-4-yl)benzamide]	> 50 µM			inactive		190 °C		
O=C(Nc1nc(C(Cl)(Cl)Cl)nc2ccccc12)c1cccnc1 [Molecule 18, N-(2-Trichloromethylquinazolin-4-yl)nicotinamide]		72.9 µM	18.7		3.9 µM	208 °C		
ClC(Cl)(Cl)c1nc(OCCN2CCCCC2)c2ccccc2n1 [Molecule 43, 4-[2-(Piperidin-1-yl)ethoxy]-2-Trichloromethylquinazoline]		23.4 µM	16.5		1.4 µM			
C[C@H]1c2cccc(O)c2C(=O)C2=C(O)[C@]3(O)C(=O)C(C(N)=O)=C(O)[C@@H](N(C)C)[C@@H]3[C@@H](O)[C@@H]21 [Doxycycline, reference compound]		20 µM			6 µM			
O=C(Nc1nc(C(Cl)(Cl)Cl)nc2ccccc12)c1ccccc1 [Molecule 5, N-(2-Trichloromethylquinazolin-4-yl)benzamide]		24.2 µM	13.8		1.76 µM	183 °C		
CCN(CC)CCCC(C)Nc1ccnc2cc(Cl)ccc12 (stereo not shown) [Chloroquine, reference compound]							0.8 µM	
OCCOc1nc(C(Cl)(Cl)Cl)nc2ccccc12 [Molecule 34, 2-(2-Trichloromethylquinazolin-4-yloxy)ethanol]		7.9 µM	0.8		10 µM	93 °C		
C#CCOc1nc(C(Cl)(Cl)Cl)nc2ccccc12 [Molecule 31, 4-(Prop-2-ynyloxy)-2-Trichloromethylquinazoline]		49.6 µM	14.6		3.4 µM	62 °C		
CC(C)C(=O)Nc1nc(C(Cl)(Cl)Cl)nc2ccccc12 [Molecule 22, N-(2-Trichloromethylquinazolin-4-yl)isobutyramide]		> 31.2 µM	>9.0		3.5 µM	161 °C		
N#Cc1ccc(C(=O)Nc2nc(C(Cl)(Cl)Cl)nc3ccccc23)cc1 [Molecule 15, 4-Cyano-N-(2-Trichloromethylquinazolin-4-yl)benzamide]		31.4 µM			3.5 µM			
COCCOc1nc(C(Cl)(Cl)Cl)nc2ccccc12 [Molecule 35, 4-(2-Methoxyethoxy)-2-Trichloromethylquinazoline]		53.2 µM	23.1		2.3 µM	63 °C		
C#CC(Oc1nc(C(Cl)(Cl)Cl)nc2ccccc12)C(C)C (stereo not shown) [Molecule 33, 4-(4-Methylpent-1-yn-3-yloxy)-2-Trichloromethylquinazoline]		30.6 µM	<3		> 10 µM	96 °C		
COc1cccc2c1C(=O)c1c(O)c3c(c(O)c1C2=O)C[C@@](O)(C(=O)CO)C[C@@H]3O[C@H]1C[C@H](N)[C@H](O)[C@H](C)O1 [Doxorubicin, reference compound]		0.2 µM						
O=C(Nc1nc(C(Cl)(Cl)Cl)nc2ccccc12)c1cccc([N+](=O)[O-])c1 [Molecule 7, 3-Nitro-N-(2-Trichloromethylquinazolin-4-yl)benzamide]		24.8 µM			3.37 µM			
O=C(Nc1nc(C(Cl)(Cl)Cl)nc2ccccc12)c1ccncc1 [Molecule 19, N-(2-Trichloromethylquinazolin-4-yl)isonicotinamide]		22.8 µM	12.7		1.8 µM	151 °C		

Structure (SMILES)	IC50 (K1 P. falciparum strain; Plasmodium falciparum)	CC50 at 72 h [1]	SI (selectivity index = CC50/EC50) (K1 P. falciparum strain)	activity against P. falciparum (in words) (K1 P. falciparum strain)	EC50 (K1 P. falciparum strain; [2])	melting point	EC50 (K1 P. falciparum strain; Plasmodium falciparum, K1, 72 h)	EC50 (K1 P. falciparum strain; [3])
O=C(Nc1nc(C(Cl)(Cl)Cl)nc2ccccc12)c1cccc(F)c1 [Molecule 10, 3-Fluoro-N-(2-Trichloromethylquinazolin-4-yl)benzamide]		19.9 µM	6.9		2.86 µM	152 °C		
CCN(CC)CCOc1nc(C(F)(F)F)nc2ccccc12 [Molecule 48, N,N-Diethyl-2-[(2-Trifluoromethylquinazolin-4-yl)oxy]ethan-1-Amine]	> 50 µM			inactive				
CCN(CC)CCOc1nc(C)nc2ccccc12 [Molecule 47, N,N-Diethyl-2-[(2-Methylquinazolin-4-yl)oxy]ethanamine]	> 50 µM			inactive		230 °C		
O=C(Nc1nc(C(Cl)(Cl)Cl)nc2ccccc12)c1ccc(Br)cc1 [Molecule 14, 4-Bromo-N-(2-Trichloromethylquinazolin-4-yl)benzamide]		19.5 µM			1.3 µM			
CCCCOc1nc(C(Cl)(Cl)Cl)nc2ccccc12 [Molecule 29, 4-Butoxy-2-Trichloromethylquinazoline]		82.4 µM	14.2		5.8 µM			
CCN(CC)CCOc1ncnc2ccccc12 [Molecule 49, N,N-Diethyl-2-(Quinazolin-4-yloxy)ethanamine]	> 50 µM			inactive				
COc1ccc(C(=O)Nc2nc(C)nc3ccccc23)cc1 [Molecule 45, 4-methoxy-N-(2-Methylquinazolin-4-yl)benzamide]	> 50 µM			inactive				
FCCOc1nc(C(Cl)(Cl)Cl)nc2ccccc12 [Molecule 39, 4-(2-Fluoroethoxy)-2-Trichloromethylquinazoline]		29.5 µM	3.7		8 µM	73 °C		
C#CC(C)Oc1nc(C(Cl)(Cl)Cl)nc2ccccc12 (stereo not shown) [Molecule 32, 4-(But-3-yn-2-yloxy)-2-Trichloromethylquinazoline]		45 µM	<4.5		> 10 µM	92 °C		
O=C(c1ccc(Cl)cc1)N(C(=O)c1ccc(Cl)cc1)c1nc(C(Cl)(Cl)Cl)nc2ccccc12 [Molecule 3, 4-Chloro-N-(4-Chlorobenzoyl)-N-(2-Trichloromethylquinazolin-4-yl)benzamide]		20 µM	13.7		1.46 µM	218.2 °C		
ClC(Cl)(Cl)c1nc(OCCN2CCCC2)c2ccccc2n1 [Molecule 44, 4-[2-(Pyrrolidin-1-yl)ethoxy]-2-Trichloromethylquinazoline]		43.7 µM			≤ 2 µM			1.3 µM
O=C(Nc1nc(C(Cl)(Cl)Cl)nc2ccccc12)c1ccc(F)cc1 [Molecule 9, 4-Fluoro-N-(2-Trichloromethylquinazolin-4-yl)benzamide]		29.4 µM			≤ 2 µM	166 °C		1.34 µM
ClCCOc1nc(C(Cl)(Cl)Cl)nc2ccccc12 [Molecule 36, 4-(2-Chloroethoxy)-2-Trichloromethylquinazoline]		> 62.5 µM	>28		2.2 µM	54 °C		
O=C(Nc1nc(C(Cl)(Cl)Cl)nc2ccccc12)c1ccc(Cl)cc1 [Molecule 2, 4-Chloro-N-(2-Trichloromethylquinazolin-4-yl)benzamide]		21 µM				199 °C		
ClCCCCOc1nc(C(Cl)(Cl)Cl)nc2ccccc12 [Molecule 38, 4-(4-Chlorobutoxy)-2-Trichloromethylquinazoline]		50.5 µM	11.7		4.3 µM			
O=C(Nc1nc(C(Cl)(Cl)Cl)nc2ccccc12)c1ccccc1Cl [Molecule 13, 2-Chloro-N-(2-Trichloromethylquinazolin-4-yl)benzamide]		27.3 µM			9.04 µM			
O=C(Nc1nc(C(Cl)(Cl)Cl)nc2ccccc12)c1cccc(Cl)c1 [Molecule 12, 3-Chloro-N-(2-Trichloromethylquinazolin-4-yl)benzamide]		16.4 µM			1.54 µM			
